For the test, the target named is T1, cloned human H3 receptors, stably expressed in SK-N-MC cells (Homo sapiens, UniProt Q9Y5N1).
T1 construct: expressed in transfected cells; host or cells: SK-N-MC cells
Nature of the test: H3 Receptor Binding (Human). Particulars: average of the results obtained. How it is done: Binding of compounds to the cloned human H3 receptors, stably expressed in SK-N-MC cells, was performed as described by Barbier, A. J. et al. (Br. J. Pharmacol. 2004, 143(5), 649-661). Data for compounds tested in this assay are presented in Table 1 as an average of the results obtained.

The results in this text go back to patent US20110178062A1, “INDOLE AND BENZOTHIOPHENE COMPOUNDS AS MODULATORS OF THE HISTAMINE H3 RECEPTOR” (priority 2007, published 2011).

The structures appear in SMILES notation.

T1 sequence (Q9Y5N1 whole entry): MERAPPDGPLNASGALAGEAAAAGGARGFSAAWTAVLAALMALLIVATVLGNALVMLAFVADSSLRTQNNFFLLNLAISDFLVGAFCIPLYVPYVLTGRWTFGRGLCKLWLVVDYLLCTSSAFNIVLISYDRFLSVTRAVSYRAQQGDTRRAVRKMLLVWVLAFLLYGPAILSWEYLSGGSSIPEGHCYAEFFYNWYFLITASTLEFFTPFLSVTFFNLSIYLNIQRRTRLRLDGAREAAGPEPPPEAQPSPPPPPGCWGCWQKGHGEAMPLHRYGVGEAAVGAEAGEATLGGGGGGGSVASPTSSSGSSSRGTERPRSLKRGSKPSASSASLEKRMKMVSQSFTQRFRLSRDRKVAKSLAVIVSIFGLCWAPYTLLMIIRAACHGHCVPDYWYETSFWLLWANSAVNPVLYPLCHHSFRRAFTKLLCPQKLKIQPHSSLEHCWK

As for `O=C(c1cccc2[nH]cc(CN3CCOCC3)c12)N1CCN(C2CCC2)CC1` [Example 41, (4-Cyclobutyl-piperazin-1-yl)-(3-morpholin-4-ylmethyl-1H-indol-4-yl)-methanone], the Ki was found to be 5 µM.
For the compound `O=C(c1cccc2[nH]cc(CN3CCCCC3)c12)N1CCN(C2CCC2)CC1` [Example 42, (4-Cyclobutyl-piperazin-1-yl)-(3-piperidin-1-ylmethyl-1H-indol-4-yl)-methanone], the affinity, expressed as Ki, was 1.5 µM.
For `O=C(c1ccc2c(CN3CCN(C4CCC4)CC3)c[nH]c2c1)N1CCC(c2ccccc2)CC1` [Example 43, [3-(4-Cyclobutyl-piperazine-1-ylmethyl)-1H-indol-6-yl]-(4-phenyl-piperidin-1-yl)-methanone], the Ki is 0.008 µM. Against the preceding compound, the Ki is about 190-fold lower.
In turn, `CC(C)N1CCN(C(=O)c2ccc3c(CN4CCN(c5ccccn5)CC4)c[nH]c3c2)CC1` [Example 46, (4-Isopropyl-piperazin-1-yl)-[3-(4-pyridin-2-yl-piperazin-1-ylmethyl)-1H-indol-6-yl]-methanone] displayed a Ki of 0.003 µM.
As to `CC(=O)N1CCN(Cc2c[nH]c3cc(C(=O)N4CCN(C(C)C)CC4)ccc23)CC1` [Example 48, 1-{4-[6-(4-Isopropyl-piperazine-1-carbonyl)-1H-indol-3-ylmethyl]-piperazin-1-yl}-ethanone], the Ki stood at 0.005 µM.
For `CC(C)N1CCN(C(=O)c2ccc3c(CN4CCN(c5nccs5)CC4)c[nH]c3c2)CC1` [Example 49, (4-Isopropyl-piperazin-1-yl)-[3-(4-thiazol-2-yl-piperazin-1-ylmethyl)-1H-indol-6-yl]-methanone], the inhibition constant (Ki) amounted to 0.007 µM.
`CC(=O)N1CCCN(Cc2c[nH]c3cc(C(=O)N4CCN(C(C)C)CC4)ccc23)CC1` [Example 50, 1-{4-[6-(4-Isopropyl-piperazine-1-carbonyl)-1H-indol-3-ylmethyl]-[1,4]diazepam-1-yl}-ethanone] gave a Ki of 0.003 µM.
In the case of `CC(C)N1CCN(C(=O)c2ccc3c(CN4CCN(Cc5ccccc5)CC4)c[nH]c3c2)CC1` [Example 51, [3-(4-Benzyl-piperazin-1-ylmethyl)-1H-indol-6-yl]-(4-isopropyl-piperazin-1-yl)-methanone] it was 0.002 µM; in that of `CC(C)N1CCN(C(=O)c2ccc3c(CN4CCN(c5ccc(-c6ccccc6)cc5)CC4)c[nH]c3c2)CC1` [Example 52, [3-(4-Biphenyl-4-yl-piperazin-1-ylmethyl)-1H-indol-6-yl]-(4-isopropyl-piperazin-1-yl)-methanone], 0.012 µM; in that of `CC(C)N1CCN(C(=O)c2ccc3c(CN4CCN(C(c5ccccc5)c5ccccc5)CC4)c[nH]c3c2)CC1` [Example 53, [3-(4-Benzydryl-piperazin-1-ylmethyl)-1H-indol-6-yl]-(4-isopropyl-piperazin-1-yl)-methanone], 0.019 µM.
Turning to `CC(C)N1CCN(C(=O)c2ccc3c(CN4CCN(S(C)(=O)=O)CC4)c[nH]c3c2)CC1` [Example 54, (4-Isopropyl-piperazin-1-yl)-[3-(4-methanesulfonyl-piperazin-1-ylmethyl)-1H-indol-6-yl]-methanone], the Ki was determined as 0.012 µM.
Take `CC(C)N1CCN(C(=O)c2ccc3c(CN4CCC(Cc5ccccc5)CC4)c[nH]c3c2)CC1` [Example 55, [3-(4-Benzyl-piperidin-1-ylmethyl)-1H-indol-6-yl]-(4-isopropyl-piperazin-1-yl)-methanone]: the Ki is 0.001 µM. Against the preceding compound, the Ki is about 12-fold lower.
`CC(C)N1CCN(C(=O)c2ccc3c(CN4CCN(CCc5ccccc5)CC4)c[nH]c3c2)CC1` [Example 56, (4-Isopropyl-piperazin-1-yl)-[3-(4-phenethyl-piperazin-1-ylmethyl)-1H-indol-6-yl]-methanone] gave a Ki of 0.002 µM.
In turn, `CC(C)N1CCN(C(=O)c2ccc3c(CN4CCCOCC4)c[nH]c3c2)CC1` [Example 59, (4-Isopropyl-piperazin-1-yl)-(3-[1,4]-oxazepan-4-ylmethyl-1H-indol-6-yl)-methanone] registered an inhibition constant Ki of 0.001 µM.
Compound `CC(=O)N(C)C1CCN(Cc2c[nH]c3cc(C(=O)N4CCN(C(C)C)CC4)ccc23)C1` (stereo not drawn) [Example 60, N-{1-[6-(4-Isopropyl-piperazine-1-carbonyl)-1H-indol-3-ylmethyl]-pyrrolidin-3-yl}-N-methyl-acetamide] had a Ki of 0.001 µM.
`CC(C)N1CCN(C(=O)c2ccc3c(CN4CCN(C(=O)N5CCOCC5)CC4)c[nH]c3c2)CC1` [Example 61, (4-Isopropyl-piperazin-1-yl)-{3-[4-(morpholine-4-carbonyl)-piperazin-1-ylmethyl]-1H-indol-6-yl}-methanone] registered a Ki of 0.003 µM.
Compound `CC(C)N1CCN(C(=O)c2ccc3c(CN4CCN(C(=O)c5ccncc5)CC4)c[nH]c3c2)CC1` [Example 62, (4-Isopropyl-piperazin-1-yl)-{3-[4-(pyridine-4-carbonyl)-piperazin-1-ylmethyl]-1H-indol-6-yl}-methanone] gave a Ki of 0.007 µM.
For the compound `CC(C)N1CCN(C(=O)c2ccc3c(CN4CCN(C(=O)c5ccccc5)CC4)c[nH]c3c2)CC1` [Example 63, [3-(4-Benzoyl-piperazin-1-ylmethyl)-1H-indol-6-yl]-(4-isopropyl-piperazin-1-yl)-methanone], the inhibitory constant (Ki) amounted to 0.001 µM.
In the case of `CC(C)N1CCN(C(=O)c2ccc3c(CN4CCN(c5ccncc5)CC4)c[nH]c3c2)CC1` [Example 64, (4-Isopropyl-piperazin-1-yl)-[3-(4-pyridin-4-yl-piperazin-1-ylmethyl)-1H-indol-6-yl]-methanone] it was 0.001 µM; in that of `CC(C)N1CCN(C(=O)c2ccc3c(CN4CCC(O)(c5ccccc5)CC4)c[nH]c3c2)CC1` [Example 65, [3-(4-Hydroxy-4-phenyl-piperidin-1-ylmethyl)-1H-indol-6-yl]-(4-isopropyl-piperazin-1-yl)-methanone], 0.001 µM.
As to `O=C(c1ccc2c(CN3CCC(N4CCCCC4)CC3)c[nH]c2c1)N1CCSCC1` [Example 67, (3-[1,4′]Bipiperidinyl-1′-ylmethyl-1H-indol-6-yl)-thiomorpholin-4-yl-methanone], the Ki turned out to be 0.171 µM.
In the case of `O=C(c1ccc2c(CN3CCN(C4CCCC4)CC3)c[nH]c2c1)N1CCSCC1` [Example 68, [3-(4-Cyclopentyl-piperazin-1-ylmethyl)-1H-indol-6-yl]-thiomorpholin-4-yl-methanone] it was 0.036 µM.
Consider `CN(C)C1CCN(Cc2c[nH]c3cc(C(=O)N4CCSCC4)ccc23)C1` (stereo not drawn) [Example 69, [3-(3-Dimethylamino-pyrrolidin-1-ylmethyl)-1H-indol-6-yl]-thiomorpholin-4-yl-methanone], for which affinity was put at a Ki of 0.019 µM. Against the preceding compound, the Ki is about 1.9-fold lower.
Regarding `O=C(c1ccc2c(CN3CCN(C4CCC4)CC3)c[nH]c2c1)N1CCSCC1` [Example 70, [3-(4-Cyclobutyl-piperazin-1-ylmethyl)-1H-indol-6-yl]-thiomorpholin-4-yl-methanone], the Ki turned out to be 0.027 µM.
As to `O=C(c1ccc2c(CN3CCCN(C4CCC4)CC3)c[nH]c2c1)N1CCSCC1` [Example 71, [3-(4-Cyclobutyl-[1,4]diazepan-1-ylmethyl)-1H-indol-6-yl]-thiomorpholin-4-yl-methanone], the inhibition constant (Ki) amounted to 0.022 µM.
For the compound `CC(C)N1CCCN(Cc2c[nH]c3cc(C(=O)N4CCSCC4)ccc23)CC1` [Example 72, [3-(4-Isopropyl-[1,4]diazepan-1-ylmethyl)-1H-indol-6-yl]-thiomorpholin-4-yl-methanone], the Ki worked out at 0.036 µM.
In the case of `O=C(c1ccc2c(CN3CCC(N4CCCCC4)CC3)c[nH]c2c1)N1CCOCC1` [Example 73, (3-[1,4′]Bipiperidinyl-1′-ylmethyl-1H-indol-6-yl)-morpholin-4-yl-methanone], the inhibition constant Ki stood at 0.205 µM.
`O=C(c1ccc2c(CN3CCN(C4CCCC4)CC3)c[nH]c2c1)N1CCOCC1` [Example 74, [3-(4-Cyclopentyl-piperazin-1-ylmethyl)-1H-indol-6-yl]-morpholin-4-yl-methanone] came in with a Ki of 0.053 µM. Against the preceding compound, the Ki is about 3.9-fold lower.
In the case of `O=C(c1ccc2c(CN3CCN(C4CCC4)CC3)c[nH]c2c1)N1CCOCC1` [Example 75, [3-(4-Cyclobutyl-piperazin-1-ylmethyl)-1H-indol-6-yl]-morpholin-4-yl-methanone] it was 0.043 µM; in that of `CC(C)N1CCN(Cc2c[nH]c3cc(C(=O)N4CCOCC4)ccc23)CC1` [Example 76, [3-(4-Isopropyl-piperazin-1-ylmethyl)-1H-indol-6-yl]-morpholin-4-yl-methanone], 0.054 µM.
As for `O=C(c1ccc2c(CN3CCCN(C4CCC4)CC3)c[nH]c2c1)N1CCOCC1` [Example 77, [3-(4-Cyclobutyl-[1,4]diazepan-1-ylmethyl)-1H-indol-6-yl]-morpholin-4-yl-methanone], the inhibition constant Ki stood at 0.038 µM.
`CC(C)N1CCCN(Cc2c[nH]c3cc(C(=O)N4CCOCC4)ccc23)CC1` [Example 78, [3-(4-Isopropyl-[1,4]diazepan-1-ylmethyl)-1H-indol-6-yl]-morpholin-4-yl-methanone] had a Ki of 0.042 µM.
`O=C(c1ccc2c(CN3CCC(N4CCCCC4)CC3)c[nH]c2c1)N1CCC(CO)CC1` [Example 79, (3-[1,4′]Bipiperidinyl-1′-ylmethyl-1H-indol-6-yl)-(4-hydroxymethyl-piperidin-1-yl)-methanone] yielded a Ki of 0.062 µM. The Ki values of the last two compounds are within 1.5-fold of each other.
The compound `O=C(c1ccc2c(CN3CCN(C4CCCC4)CC3)c[nH]c2c1)N1CCC(CO)CC1` [Example 80, [3-(4-Cyclopentyl-piperazin-1-ylmethy)l-1H-indol-6-yl]-(4-hydroxymethyl-piperidin-1-yl)-methanone] registered a Ki of 0.038 µM.
Compound `O=C(c1ccc2c(CN3CCN(C4CCC4)CC3)c[nH]c2c1)N1CCC(CO)CC1` [Example 81, [3-(4-Cyclobutyl-piperazin-1-ylmethy)l-1H-indol-6-yl]-(4-hydroxymethyl-piperidin-1-yl)-methanone] displayed a Ki of 0.017 µM. Compared with the last compound, the Ki is about 2.2-fold lower.
`CC(C)N1CCN(Cc2c[nH]c3cc(C(=O)N4CCC(CO)CC4)ccc23)CC1` [Example 82, (4-Hydroxymethyl-piperidin-1-yl)-[3-(4-isopropyl-piperazin-1-ylmethyl)-1H-indol-6-yl]-methanone]: the Ki is 0.034 µM.

In general, Ki refers to a dissociation constant, usually derived from enzyme kinetics or from competition with a known ligand. A higher Ki goes with a looser hold on the target.
